Test results as given in the supplement of paper PMC4628005.

What was measured:
Conditions in all cases: drug exposure time: 96 h
17-AAG = compound: C=CCNC1=C2C[C@@H](C)C[C@H](OC)[C@H](O)[C@@H](C)/C=C(\C)[C@H](OC(N)=O)[C@@H](OC)/C=C\C=C(/C)C(=O)NC(=CC1=O)C2=O [17-AAG]
Method: (§1)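 Same SRB 96 h IC50 screen on breast cancer cell lines (RPMI 1640 + 10% FBS, collagen I-coated 96-well plates, triplicates, 12 dilutions), for drugs with a different dose range: Bortezomib up to 2e-5 M; Sirolimus and 17-AAG up to 2e-6 M. Sirolimus values at the 2e-6 M top dose are censored.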

Bortezomib = compound: CC(C)C[C@H](NC(=O)[C@H](Cc1ccccc1)NC(=O)c1cnccn1)B(O)O [Bortezomib]
Method: as §1

Sirolimus = compound: CO[C@H]1C[C@@H]2CC[C@@H](C)[C@@](O)(O2)C(=O)C(=O)N2CCCC[C@H]2C(=O)O[C@H]([C@H](C)C[C@@H]2CC[C@@H](O)[C@H](OC)C2)CC(=O)[C@H](C)/C=C(\C)[C@@H](O)[C@@H](OC)C(=O)[C@H](C)C[C@H](C)/C=C/C=C/C=C/1C [Sirolimus]
Method: as §1

ARQ197 = compound: O=C1NC(=O)[C@@H](c2cn3c4c(cccc24)CCC3)[C@@H]1c1c[nH]c2ccccc12 [ARQ197]
Method: (§2)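 Breast cancer cell lines were grown in RPMI 1640 with 10% FBS on collagen I-coated 96-well plates and treated for 96 h (from 24 h after seeding) with 12 dilutions per drug, in triplicate. Growth was read by sulforhodamine B total-protein staining (absorbance 570 nm) relative to diluent control, and IC50 was calculated. The top dose was 1e-5 M for most drugs; Bortezomib went to 2e-5 M and Sirolimus and 17-AAG to 2e-6 M[…].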

Vandetanib = compound: COc1cc2/c(=N/c3ccc(Br)cc3F)nc[nH]c2cc1OCC1CCN(C)CC1 [Vandetanib]
Method: as §2

5-Fluorouracil = compound: O=c1[nH]cc(F)c(=O)[nH]1 [5-Fluorouracil]
Method: as §2

Vorinostat = compound: O=C(CCCCCCC(=O)Nc1ccccc1)NO [Vorinostat]
Method: as §2

Tipifarnib = compound: Cn1cncc1[C@@](N)(c1ccc(Cl)cc1)c1ccc2c(c1)c(-c1cccc(Cl)c1)cc(=O)n2C [Tipifarnib]
Method: as §2

Methotrexate = compound: CN(Cc1cnc2nc(N)nc(N)c2n1)c1ccc(C(=O)N[C@@H](CCC(=O)O)C(=O)O)cc1 [Methotrexate]
Method: as §2

Belinostat = compound: O=C(/C=C/c1cccc(S(=O)(=O)Nc2ccccc2)c1)NO [Belinostat]
Method: as §2

Decitabine = compound: Nc1ncn([C@H]2C[C@H](O)[C@@H](CO)O2)c(=O)n1 [Decitabine]
Method: as §2

Cisplatin = compound: N.N.[Cl][Pt][Cl] [Cisplatin]
Method: as §2

Mitoxantrone = compound: O=C1c2c(O)ccc(O)c2C(=O)c2c(NCCNCCO)ccc(NCCNCCO)c21 [Mitoxantrone]
Method: as §2

Doxorubicin = compound: COc1cccc2c1C(=O)c1c(O)c3c(c(O)c1C2=O)C[C@@](O)(C(=O)CO)C[C@@H]3O[C@H]1C[C@H](N)[C@H](O)[C@H](C)O1 [Doxorubicin]
Method: as §2

MI-219 = compound: CC(C)(C)C[C@H]1N[C@@H](C(=O)NCC[C@H](O)CO)[C@H](c2cccc(Cl)c2)[C@@]12C(=O)Nc1cc(Cl)c(F)cc12 [MI-219]
Method: as §2

Sunitinib = compound: CCN(CC)CCNC(=O)c1c(C)[nH]c(/C=C2\C(=O)Nc3ccc(F)cc32)c1C [Sunitinib]
Method: as §2

Nutlin-3 = compound: COc1ccc(C2=N[C@@H](c3ccc(Cl)cc3)[C@@H](c3ccc(Cl)cc3)N2C(=O)N2CCNC(=O)C2)c(OC(C)C)c1 [Nutlin-3]
Method: as §2

Paclitaxel = compound: CC(=O)O[C@H]1C(=O)[C@@]2(C)[C@H]([C@H](OC(=O)c3ccccc3)[C@]3(O)C[C@H](OC(=O)[C@H](O)[C@@H](NC(=O)c4ccccc4)c4ccccc4)C(C)=C1C3(C)C)[C@]1(OC(C)=O)CO[C@@H]1C[C@@H]2O [Paclitaxel]
Method: as §2

Docetaxel = compound: CC(=O)O[C@@]12CO[C@@H]1C[C@H](O)[C@@]1(C)C(=O)[C@H](O)C3=C(C)[C@@H](OC(=O)[C@H](O)[C@@H](NC(=O)OC(C)(C)C)c4ccccc4)C[C@@](O)([C@@H](OC(=O)c4ccccc4)[C@H]21)C3(C)C [Docetaxel]
Method: as §2

Panobinostat = compound: Cc1[nH]c2ccccc2c1CCNCc1ccc(/C=C/C(=O)NO)cc1 [Panobinostat]
Method: as §2

Quisinostat = compound: Cn1cc(CNCC2CCN(c3ncc(C(=O)NO)cn3)CC2)c2ccccc21 [Quisinostat]
Method: as §2

Dasatinib = compound: Cc1nc(Nc2ncc(C(=O)Nc3c(C)cccc3Cl)s2)cc(N2CCN(CCO)CC2)n1 [Dasatinib]
Method: as §2

Gefitinib = compound: COc1cc2ncnc(Nc3ccc(F)c(Cl)c3)c2cc1OCCCN1CCOCC1 [Gefitinib]
Method: as §2

Lapatinib = compound: CS(=O)(=O)CCNCc1ccc(-c2ccc3ncnc(Nc4ccc(OCc5cccc(F)c5)c(Cl)c4)c3c2)o1 [Lapatinib]
Method: as §2

Erlotinib = compound: C#Cc1cccc(Nc2ncnc3cc(OCCOC)c(OCCOC)cc23)c1 [Erlotinib]
Method: as §2

Serdemetan = compound: c1ccc2c(CCNc3ccc(Nc4ccncc4)cc3)c[nH]c2c1 [Serdemetan]
Method: as §2

Brivanib = compound: Cc1cc2c(F)c(Oc3ncnn4cc(OC[C@@H](C)O)c(C)c34)ccc2[nH]1 [Brivanib]
Method: as §2

Tamoxifen = compound: CC/C(=C(\c1ccccc1)c1ccc(OCCN(C)C)cc1)c1ccccc1 [Tamoxifen]
Method: as §2

Sorafenib = compound: CNC(=O)c1cc(Oc2ccc(NC(=O)Nc3ccc(Cl)c(C(F)(F)F)c3)cc2)ccn1 [Sorafenib]
Method: as §2

Azacitidine = compound: Nc1ncn([C@@H]2O[C@H](CO)[C@@H](O)[C@H]2O)c(=O)n1 [Azacitidine]
Method: as §2

With T 47 D the “IC50 (SRB growth assay)” value (17-AAG) was 0.913 µM, the “IC50 (SRB growth assay)” value (Bortezomib) was 0.0017 µM and the “IC50 (SRB growth assay)” value (Sirolimus) was 0.000143 µM. The “IC50 (SRB growth assay)” value (ARQ197) was 1.46 µM, the “IC50 (SRB growth assay)” value (Vandetanib) was 2.52 µM and the “IC50 (SRB growth assay)” value (5-Fluorouracil) was 2.8 µM. The “IC50 (SRB growth assay)” value (Vorinostat) was 0.828 µM, the “IC50 (SRB growth assay)” value (Tipifarnib) was 0.403 µM and the “IC50 (SRB growth assay)” value (Methotrexate) was > 10 µM. For the same test system, the “IC50 (SRB growth assay)” value (Belinostat) was 0.239 µM, the “IC50 (SRB growth assay)” value (Decitabine) was > 10 µM and the “IC50 (SRB growth assay)” value (Cisplatin) was > 10 µM. For the same test system, the “IC50 (SRB growth assay)” value (Mitoxantrone) was 0.00265 µM, the “IC50 (SRB growth assay)” value (Doxorubicin) was 0.0104 µM and the “IC50 (SRB growth assay)” value (MI-219) was > 10 µM. The “IC50 (SRB growth assay)” value (Sunitinib) was 4.31 µM, the “IC50 (SRB growth assay)” value (Nutlin-3) was > 10 µM and the “IC50 (SRB growth assay)” value (Paclitaxel) was 0.00172 µM. The “IC50 (SRB growth assay)” value (Docetaxel) was 0.00062 µM, the “IC50 (SRB growth assay)” value (Panobinostat) was 0.0105 µM and the “IC50 (SRB growth assay)” value (Quisinostat) was 0.00814 µM. The “IC50 (SRB growth assay)” value (Dasatinib) was > 10 µM, the “IC50 (SRB growth assay)” value (Gefitinib) was 8.77 µM and the “IC50 (SRB growth assay)” value (Lapatinib) was 2.21 µM. The “IC50 (SRB growth assay)” value (Erlotinib) was 7.14 µM, the “IC50 (SRB growth assay)” value (Serdemetan) was 1.1 µM and the “IC50 (SRB growth assay)” value (Brivanib) was > 10 µM. For the same test system, the “IC50 (SRB growth assay)” value (Tamoxifen) was 3.42 µM, the “IC50 (SRB growth assay)” value (Sorafenib) was 2.73 µM and the “IC50 (SRB growth assay)” value (Azacitidine) was 7.3 µM.

In the case of UACC 812, the “IC50 (SRB growth assay)” value (17-AAG) is reported as 0.00362 µM, the “IC50 (SRB growth assay)” value (Bortezomib) is reported as 0.0075 µM and the “IC50 (SRB growth assay)” value (Sirolimus) is reported as 0.000144 µM. The “IC50 (SRB growth assay)” value (ARQ197) was 0.528 µM, the “IC50 (SRB growth assay)” value (Vandetanib) was 3.54 µM and the “IC50 (SRB growth assay)” value (5-Fluorouracil) was 6.24 µM. The “IC50 (SRB growth assay)” value (Vorinostat) was 2.27 µM, the “IC50 (SRB growth assay)” value (Tipifarnib) was 0.666 µM and the “IC50 (SRB growth assay)” value (Methotrexate) was > 10 µM. The “IC50 (SRB growth assay)” value (Belinostat) was 0.901 µM, the “IC50 (SRB growth assay)” value (Decitabine) was > 10 µM and the “IC50 (SRB growth assay)” value (Cisplatin) was > 10 µM. For the same test system, the “IC50 (SRB growth assay)” value (Mitoxantrone) was 0.275 µM, the “IC50 (SRB growth assay)” value (Doxorubicin) was 0.0799 µM and the “IC50 (SRB growth assay)” value (MI-219) was 0.822 µM. The “IC50 (SRB growth assay)” value (Sunitinib) was 5.49 µM, the “IC50 (SRB growth assay)” value (Nutlin-3) was 1.72 µM and the “IC50 (SRB growth assay)” value (Paclitaxel) was 0.00567 µM. For the same test system, the “IC50 (SRB growth assay)” value (Docetaxel) was 0.00165 µM, the “IC50 (SRB growth assay)” value (Panobinostat) was 0.0299 µM and the “IC50 (SRB growth assay)” value (Quisinostat) was 0.0172 µM. The “IC50 (SRB growth assay)” value (Dasatinib) was 1.6 µM, the “IC50 (SRB growth assay)” value (Gefitinib) was 4.83 µM and the “IC50 (SRB growth assay)” value (Lapatinib) was 0.132 µM. For the same test system, the “IC50 (SRB growth assay)” value (Erlotinib) was 4.08 µM, the “IC50 (SRB growth assay)” value (Serdemetan) was 1.05 µM and the “IC50 (SRB growth assay)” value (Brivanib) was > 10 µM. For the same test system, the “IC50 (SRB growth assay)” value (Tamoxifen) was > 10 µM, the “IC50 (SRB growth assay)” value (Sorafenib) was 3.11 µM and the “IC50 (SRB growth assay)” value (Azacitidine) was > 10 µM.

With ZR 75-1 the “IC50 (SRB growth assay)” value (17-AAG) was 0.0459 µM, the “IC50 (SRB growth assay)” value (Bortezomib) was 0.00551 µM and the “IC50 (SRB growth assay)” value (Sirolimus) was 0.000244 µM. For the same test system, the “IC50 (SRB growth assay)” value (ARQ197) was 0.733 µM, the “IC50 (SRB growth assay)” value (Vandetanib) was 3.82 µM and the “IC50 (SRB growth assay)” value (5-Fluorouracil) was 2.32 µM. For the same test system, the “IC50 (SRB growth assay)” value (Vorinostat) was 2.98 µM, the “IC50 (SRB growth assay)” value (Tipifarnib) was 0.822 µM and the “IC50 (SRB growth assay)” value (Methotrexate) was 0.0345 µM. For the same test system, the “IC50 (SRB growth assay)” value (Belinostat) was 1.68 µM, the “IC50 (SRB growth assay)” value (Decitabine) was > 10 µM and the “IC50 (SRB growth assay)” value (Cisplatin) was > 10 µM. The “IC50 (SRB growth assay)” value (Mitoxantrone) was 0.0102 µM, the “IC50 (SRB growth assay)” value (Doxorubicin) was 0.0449 µM and the “IC50 (SRB growth assay)” value (MI-219) was > 10 µM. The “IC50 (SRB growth assay)” value (Sunitinib) was > 10 µM, the “IC50 (SRB growth assay)” value (Nutlin-3) was > 10 µM and the “IC50 (SRB growth assay)” value (Paclitaxel) was 0.00665 µM. For the same test system, the “IC50 (SRB growth assay)” value (Docetaxel) was 0.00452 µM, the “IC50 (SRB growth assay)” value (Panobinostat) was 0.0468 µM and the “IC50 (SRB growth assay)” value (Quisinostat) was 0.0271 µM. The “IC50 (SRB growth assay)” value (Dasatinib) was 1.66 µM, the “IC50 (SRB growth assay)” value (Gefitinib) was > 10 µM and the “IC50 (SRB growth assay)” value (Lapatinib) was 6.33 µM. For the same test system, the “IC50 (SRB growth assay)” value (Erlotinib) was > 10 µM, the “IC50 (SRB growth assay)” value (Serdemetan) was 0.822 µM and the “IC50 (SRB growth assay)” value (Brivanib) was > 10 µM. The “IC50 (SRB growth assay)” value (Tamoxifen) was 4.49 µM, the “IC50 (SRB growth assay)” value (Sorafenib) was 5.98 µM and the “IC50 (SRB growth assay)” value (Azacitidine) was 3.75 µM.
